Laboratory results: the supplement of paper PMC5579334
± gives the standard deviation of the averaged measurements.

How the values were obtained:
HS-PSS [1] = assay: drug sensitivity score (DSS, CellTiter-Glo viability, 72 h) (DSS (dimensionless)); higher = more sensitive; extreme values may be limits of the assay
In short: (§1)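 Viability was scored by CellTiter-Glo ATP luminescence, scaled from vehicle to positive-control wells, with duplicates averaged where present. The cells, MPNST lines and primary human Schwann cells at 750–1000 per well, sat 72 h at 37 °C, 5% CO2, in 384-well plates preprinted with each compound at five concentrations in 10-fold steps. Four-parameter logistic fits were run on the data. These fits give drug sensitivity score and relative IC50 censored at the top concentration, and percent inhibition is reported at the top concentration.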

HS-Sch-2 [2] = assay: as above
In short: as §1

[3] = tested on: HSC1 (primary human Schwann cells); assay: as above
In short: as §1

[4] = tested on: HSC2 (primary human Schwann cells); assay: as above
In short: as §1

S1507-2 [5] = assay: as above
In short: as §1

S462 [6] = assay: as above
In short: as §1

ST8814 [7] = assay: as above
In short: as §1

STS26T [8] = assay: as above
In short: as §1

YST-1 [9] = assay: as above
In short: as §1

HS-PSS [10] = assay: drug sensitivity score (DSS, CellTox-Green cytotoxicity, 72 h) (DSS (dimensionless)); higher = more cytotoxic; extreme values may be limits of the assay
In short: (§2)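 MPNST cell lines and primary human Schwann cells were incubated 72 h at 37 °C in 384-well plates holding five 10-fold compound dilutions. CellTox-Green was added before seeding at a final 1:1000 dilution and reported fluorescence from DNA released by disrupted cells. Signals were scaled to vehicle and positive-control wells, and cultures failing plate quality control were dropped. Drug sensitivity score and relative IC50 come from four-parameter logistic fits, with IC50 censored at the top concentration.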

[11] = tested on: HSC1 (primary human Schwann cells); assay: as above
In short: as §2

[12] = tested on: HSC2 (primary human Schwann cells); assay: as above
In short: as §2

S1507-2 [13] = assay: as above
In short: as §2

ST8814 [14] = assay: as above
In short: as §2

STS26T [15] = assay: as above
In short: as §2

HS-PSS [16] = assay: % inhibition of CellTiter-Glo viability at highest tested concentration (72 h), relative to DMSO and benzethonium chloride controls; higher = more inhibition
In short: as §1

HS-Sch-2 [17] = assay: as above
In short: as §1

[18] = tested on: HSC1 (primary human Schwann cells); assay: as above
In short: as §1

[19] = tested on: HSC2 (primary human Schwann cells); assay: as above
In short: as §1

S1507-2 [20] = assay: as above
In short: as §1

S462 [21] = assay: as above
In short: as §1

ST8814 [22] = assay: as above
In short: as §1

STS26T [23] = assay: as above
In short: as §1

YST-1 [24] = assay: as above
In short: as §1

| Structure (SMILES) | drug sensitivity score (HS-PSS [1]) | drug sensitivity score (HS-Sch-2 [2]) | drug sensitivity score [3] | drug sensitivity score [4] | drug sensitivity score (S1507-2 [5]) | drug sensitivity score (S462 [6]) | drug sensitivity score (ST8814 [7]) | drug sensitivity score (STS26T [8]) | drug sensitivity score (YST-1 [9]) | drug sensitivity score (HS-PSS [10]) | drug sensitivity score [11] | drug sensitivity score [12] | drug sensitivity score (S1507-2 [13]) | drug sensitivity score (ST8814 [14]) | drug sensitivity score (STS26T [15]) | % inhibition (HS-PSS [16]) | % inhibition (HS-Sch-2 [17]) | % inhibition [18] | % inhibition [19] | % inhibition (S1507-2 [20]) | % inhibition (S462 [21]) | % inhibition (ST8814 [22]) | % inhibition (STS26T [23]) | % inhibition (YST-1 [24]) |
| --- | --- | --- | --- | --- | --- | --- | --- | --- | --- | --- | --- | --- | --- | --- | --- | --- | --- | --- | --- | --- | --- | --- | --- | --- |
| COc1cc2nccc(Oc3ccc(NC(=O)C4(C(=O)Nc5ccc(F)cc5)CC4)cc3)c2cc1OC [Cabozantinib] (max concentration tested 1000 nM) | 1.89 | 0.13 | 0.225 | 0 | 4.78 ± 0.14 | 0.552 ± 0.78 | 2.2 | 0.238 | 0 | 0 | 0 | 0 | 0 | 0 | 0 | 23% | 10.9% | 13.2% | 8.9% | 27.7 ± 7.5% | 14 ± 4.9% | 21.3% | 13.4% | 0.14% |
| O=C(c1cc(Cc2n[nH]c(=O)c3ccccc23)ccc1F)N1CCN(C(=O)C2CC2)CC1 [Olaparib] (max concentration tested 10000 nM) | 1.4 | 2.98 | 3.07 | 3.8 | 1.07 ± 0.15 | 4.85 ± 0.63 | 1.85 | 3.17 | 10.2 | 0 | 0 | 0.201 | 0.075 ± 0.11 | 1.56 | 1.04 | 23.2% | 32.8% | 38.1% | 39.3% | 25.7 ± 8.5% | 61.15 ± 0.35% | 41.6% | 46.3% | 69% |
| Cc1nc(Nc2ncc(C(=O)Nc3c(C)cccc3Cl)s2)cc(N2CCN(CCO)CC2)n1 [Dasatinib] (max concentration tested 1000 nM) | 0.97 | 7.09 | 8.49 | 5.78 | 12.3 ± 1.8 | 4.46 ± 0.87 | 10.2 | 11.7 | 4.94 | 0 | 0 | 0 | 1.53 ± 1.1 | 4.56 | 3.95 | 19.3% | 58.5% | 60% | 49.2% | 82.6 ± 2.6% | 30.9 ± 1.7% | 65.5% | 64.8% | 20.6% |
| Cc1ccc(NC(=O)c2ccc(CN3CCN(C)CC3)cc2)cc1Nc1nc(-c2cccnc2)cs1 [Masitinib] (max concentration tested 10000 nM) | 7.12 | 5.27 | 3.32 | 3.5 | 7.556 ± 0.038 | 3.78 ± 0.14 | 4.79 | 4.23 | 6.54 | 1.06 | 2.96 | 0.804 | 4.73 ± 0.42 | 4.31 | 3.63 | 83.9% | 97.2% | 65.1% | 54.6% | 96.25 ± 0.36% | 71.4 ± 5.9% | 87.5% | 80.8% | 90.8% |
| O=C(O)CCCc1ccc(N(CCCl)CCCl)cc1 [Chlorambucil] (max concentration tested 10000 nM) | 0 | 0 | 0.621 | 0.471 | 0 | 0 | 0 | 0 | 0.78 | 0 | 0 | 0 | 0 | 0 | 0 | 3.62% | 1.59% | 24.7% | 21.9% | -14.4 ± 0.28% | -2.04 ± 1.9% | -14.6% | -3.28% | 18.1% |
| O=C(c1ccc(C(=O)N2CCC(N3CCCC3)CC2)c(Nc2ccccc2)c1)N1CCC(N2CCCC2)CC1 [UNC1215] (max concentration tested 30000 nM) | 0.73 | 0.38 | 0 | 0 | 0 | 0 | 0.198 | 0 | 0 | 0 | 0 | 0 | 0 | 0 | 0 | 20.4% | 15.2% | 8.9% | 5.83% | 5.34 ± 1.7% | 2.34 ± 0.36% | 13.9% | 3.37% | -5.53% |
| Cn1c(Nc2ccc(C(F)(F)F)cc2)nc2cc(Oc3ccnc(-c4ncc(C(F)(F)F)[nH]4)c3)ccc21 [RAF265] (max concentration tested 1000 nM) | 4.44 | 1.56 | 11.2 | 14.4 | 4.23 ± 0.6 | 5.79 ± 0.67 | 3.46 | 3.93 | 2.73 | 0 | 0 | 0 | 0 | 0 | 0 | 52.2% | 22.3% | 70.8% | 68.9% | 43.6 ± 6% | 51.9 ± 1.2% | 33.1% | 40.9% | 30.2% |
| NS(=O)(=O)OC[C@@H]1C[C@@H](n2ccc3c(N[C@H]4CCc5ccccc54)ncnc32)C[C@@H]1O [Pevonedistat] (max concentration tested 10000 nM) | 23.8 | 28 | 12 | 14.3 | 17.3 ± 1 | 23.2 ± 1.4 | 20 | 12.7 | 15.2 | 10.7 | 4.84 | 3 | 16.7 ± 2.1 | 19.3 | 11.7 | 97% | 101% | 77.1% | 84.4% | 87.5 ± 1.1% | 96.07 ± 0.96% | 95.6% | 83.4% | 67.7% |
| CN1CCc2c(c3ccccc3n2Cc2ccc(C(=O)NO)cc2)C1 [Tubastatin A] (max concentration tested 10000 nM) | 3.48 | 3.88 | 1.74 | 1.75 | 3.45 ± 0.18 | 4.36 ± 0.37 | 1.84 | 3.1 | 4.65 | 0 | 0 | 0 | 0.928 ± 1.3 | 0 | 2.56 | 60.9% | 74.3% | 36.4% | 23.3% | 52.1 ± 7.6% | 80.8 ± 8.9% | 40.8% | 52.5% | 52.4% |
| CC(=O)[C@]1(O)Cc2c(O)c3c(c(O)c2[C@@H](O[C@H]2C[C@H](N)[C@H](O)[C@H](C)O2)C1)C(=O)c1ccccc1C3=O [Idarubicin] (max concentration tested 1000 nM) | 10.1 | 15.7 | 18.1 | 17.6 | 17.1 ± 2.4 | 23.5 ± 0.84 | 16.2 | 20.5 | 24.2 | 5.11 | 8.63 | 7.65 | 10.6 ± 0.28 | 12.2 | 15.8 | 92.3% | 102% | 94.9% | 95.5% | 95.7 ± 1.7% | 99.5 ± 0.8% | 88% | 97.8% | 101% |
| CC/C(=C(\c1ccccc1)c1ccc(OCCN(C)C)cc1)c1ccccc1 [Tamoxifen] (max concentration tested 10000 nM) | 2.37 | 4.43 | 0.133 | 2.59 | 1.29 ± 0.79 | 0.757 ± 0.86 | 3.39 | 0.653 | 1.24 | 0 | 0 | 0 | 3.75 ± 4.3 | 6.84 | 0.396 | 55.4% | 61.6% | 14.8% | 52.1% | 35.2 ± 12% | 24.9 ± 13% | 65.2% | 22% | 29.6% |
| Nc1cc(C(F)(F)F)c(-c2cc(N3CCOCC3)nc(N3CCOCC3)n2)cn1 [Buparlisib] (max concentration tested 10000 nM) | 6.19 | 8.73 | 6.85 | 7.01 | 8.72 ± 0.83 | 8.35 ± 0.34 | 8.12 | 9.07 | 12.1 | 0 | 5.07 | 7.46 | 5.23 ± 2.9 | 4.69 | 8.28 | 70.9% | 95.2% | 85.1% | 88.1% | 88.421 ± 0.034% | 97.02 ± 0.16% | 90.9% | 96.8% | 95.3% |
| NC(=O)Nc1cc(-c2cccc(F)c2)sc1C(=O)N[C@H]1CCCNC1 [AZD7762] (max concentration tested 1000 nM) | 4.8 | 12.7 | 6.7 | 3.95 | 10.9 ± 0.13 | 14.7 ± 0.2 | 8.3 | 9.05 | 4.02 | 0.32 | 3.66 | 5.55 | 3.7 ± 0.91 | 5.42 | 9.01 | 61.9% | 90.7% | 72.8% | 70.2% | 80.47 ± 0.4% | 98.22 ± 0.35% | 86.2% | 90.7% | 71.9% |
